Consider 6 compounds from US6649797B2, “Compounds and methods of use to treat infectious diseases” (The Picower Institute for Medical Research, priority 1996, dated 2003).

A short description of data set [1]: Toxicity in mice, median lethal dose by intraperitoneal injection. To be noted: for LD50: mouse, in vivo, ip, read-out: LD50 ± standard deviation. The data set is classed as in vivo, mouse. As to the method: The doses of compounds of the invention found to be lethal to 50% of the mice (LD50) were determined by intraperitoneal injection of groups of five animals with increasing doses of each compound. CNI-0294 was administered from 0, 2, 10, 20, 40, 80, 160, 320, 640, 1280 mg/kg in 0.5 ml of water/HCl; CNI-1594 at 0, 2.4, 5, 10, 20, 40, 80 mg/kg in 0.5 ml of water/HCl; CNI-1794 at 0, 20, 50, 80 mg/kg in 0.5 ml of water/HCl; and CNI-1894 at 0, 10, 20, 40, 80, 240, 480, 960 mg/kg in water/HCl. […] The percentage of animals in each group which died were utilized to calculate the LD50 by non-linear curve fitting with the Enzfit software (Elsevier Bioscience; Cambridge, UK) programmed with the Chou equation (Chou 1976, J Theor Biol 39:253-276)).

In data set [2] the test system is macrophage-tropic strain of HIV-1. Description: Inhibition of HIV-1 replication in peripheral blood-derived macrophages (IC50, RT or p24 in medium). The class given is cell-based. To be noted: Human immunodeficiency virus 1, Macrophage, 120 h; 50% inhibition of viral growth; RT or p24 in medium about day 5 or 6 post-infection. As to the method:
A quantitative measurement of the activity of the compounds of the invention to block the replication of HIV-1 in non-dividing cells can be determined by culture of a macrophage-tropic strain of HIV-1 on peripheral blood-derived macrophages. The cells are cultured for 5-6 days prior to infection in a medium consisting of DMEM supplemented with 10% type A/B human serum and 200 U/ml Macrophage Colony Stimulating Factor, with half the medium changed after 3 days, to reach a density of about 10^6 cells per 5 ml well. A macrophage-tropic viral stock may be grown on these cells. The concentration of infectious particles in the stock is estimated by measurement of p24 antigen concentration.
To test the effect of compounds of the invention on HIV-1 infection in the above-described culture system, the medium is removed and replaced with medium containing HIV-1 at a concentration of 1 ng of p24 (10^4 TCID50/ml (TCID=tissue culture infectious doses)) and a known concentration of the compound of the invention (the inhibitor). After 24 hours, the cultures are washed to remove non-adherent virus and the culture is re-fed with medium containing the inhibitor at the desired concentration. The amount of replication of HIV-1 is estimated by an assay of the reverse transcriptase activity or by an assay of the concentration of p24 antigen in the culture medium every 2-3 days throughout the post-infection period. In a preferred embodiment the anti-HIV potency of the candidate drug is measured by comparison of the concentration of reverse transcriptase (RT) or of p24 antigen in the medium of the treated and control cultures at the time of the peak of these values in non-treated control cultures, that is about day 5 or 6 post-infection. Repetition at various levels of inhibitor allows for the calculation of the concentration of inhibitor that achieves 50% inhibition of viral growth, IC50. Table I discloses the IC50 of various inhibitors.

The test system of data set [3] is Plasmodium falciparum. Description: Antimalarial activity in vitro, [3H]-hypoxanthine incorporation. The class given is cell-based. To be noted: clone Dd2. The source says:
The antimalarial properties of the compounds of the invention can be analyzed by techniques, assays and experimental animal models well known in the art. For example, the inhibition of growth of Plasmodium falciparum in vitro by the compounds may be assessed by the hypoxanthine-incorporation method (Desjardins et al., 1979, Antimicrob. Ag. Chemother. 16:710-718). […] The in vivo efficacy of the compounds can also be tested in mouse models in which parasitemia is enumerated following administration of the compound (Ager, A. L. 1984, Rodent malaria models, pp 225-264. In Handbook of Experimental Pharmacology vol. 68, Antimalarial Drugs, Peters and Richards eds, Springer-Verlag, Berlin).
The antimalarial activity of the compounds was determined essentially as described in Desjardins et al. supra. Fifty μl of various concentrations of a compound of the invention, chloroquine, or pyrimethamine were added to the wells of microtiter plates, followed by 200 μl of ring-stage, synchronized, P. falciparum-infected erythrocytes (final hematocrit=1.5%, final parasitemia=1-5%). The plates were incubated for 24 hr in a candle jar kept at 37° C., and then 25 μl of [^3H]-hypoxanthine (Amersham, Arlington Heights, ILL.; 2.5 μl Ci/well) was added. The plates were then incubated for a further 24 hr, before harvesting onto Unifilter-96 GF/C filter-microplates (Packard; Meriden, Conn.). Twenty-five μl of Microscint scintillation fluid (Packard) was added to each well of the filter-microplate, which was subsequently counted in a Top-count microplate scintillation counter (Packard). The percent of [^3H]-hypoxanthine uptake relative to control infect-erythrocytes was used to determine the IC50 value for the compounds by non-linear regression for LD50 determination.

A short description of data set [4]: Pharmacokinetics in mice (plasma, HPLC). The class given is in vivo, mouse. The note with it: for Dose: calculated from clearance for target serum conc. (No. 2: 10 nM; No. 11: 50 nM; No. 15: 15 nM); for AUC / Cmax / bioavailability / Tmax: female, ND4 Swiss Webster, plasma; for Tmax: read-out: tmax (converted).
Method: Standard addition curves for each test compound were constructed by adding increased amounts of drug to mouse or human A^+ plasma (Long Island Blood Services; Melville, N.Y). […] The column was washed with 1.0 ml of water and then eluted with 1.0 ml of 10 mM tetramethylammonium chloride/10 mM heptane sulfonate/4.2 mM H3PO4/95% CH3CN/5% H2O (Buffer C). The eluted sample was reduced to dryness in a rotary evaporator and resuspended in 1.0 ml Buffer A.
Two hundred μl of the resuspended sample was injected onto a Hewlett-Packard model 1090 high performance liquid chromatography system (HPLC)(Wilmington, Del.) equipped with a photodiode array ultraviolet/visible spectrophotometric detector, autosampler, and Chemstation operating software. The column used was a 250×4.6 mm Zorbax RX-C8 column (Mac-Mod Analyticals; Chadd's Ford, Pa.) kept at room temperature and run at 1.5 ml/min. The mobile phase used was Buffer A and 10 mM tetramethylammonium chloride/10 mM heptane sulfonate/4.2 mM H3PO4/75% CH3CN/25% H2O (Buffer B), with all runs initiated at 10% Buffer B. A linear 30 min gradient to 60% Buffer B was then performed, followed by a 4 min reverse gradient to initial conditions.
Female ND4 Swiss Webster mice (21-24 g) were obtained from Harlan Sprague Dawley (Indianapolis, Ind.) and randomly placed in groups of five in cages with free access to food and water. […] The other CNI compounds were administered intraperitoneally or by oral gavage as a solution in water titrated with sufficient HCl to dissolve the drug. At various time points, ranging from 5 min to 4 days, a single group of animals was euthanized by carbon dioxide inhalation and bled by cardiac puncture using heparin as an anticoagulant. The blood from the five mice in the group was pooled and centrifuged at 14000× g for 10 min. The volume of plasma was measured, and equal volume of Buffer A added, and the mixture extracted and analyzed as described above, except that the dried eluates were resuspended in 200 μl Buffer A and 100 μl was injected onto the high performance liquid chromatography (HPLC) system.
The area under the plasma concentration-time curve (AUC) was determined, and bioavailability was measured as AUCoral/AUCi.p. A and B represent the zero time intercept of the distribution and elimination phases respectively, and a and β the respective slopes of the phases multiplied by 2.303. The t/2α and t1/2β are calculated half-lives of the drug in each phase (0.693/α and 0.693/β respectively). The volume of distribution (VD) was calculated as dose/B, and the total clearance rate (Cltot) calculated as β*VD. Cmax and tmax are the maximal plasma concentration and time of this measurement, respectively.
Data set [5] can be described thus: In vitro metabolism with mouse liver post-mitochondrial supernatant and NADPH. The note with it: for metabolic conversion (drug altered, as judged by peak area): 60 min incubation. The class given is in vitro ADME. As to the method: Several female ND4 Swiss Webster mice were euthanized by carbon dioxide inhalation and the livers excised and rinsed with ice cold phosphate buffered saline (pH 7.4). The livers were minced, gently homogenized in 50 mM phosphate buffer (pH 7.4) with a Dounce homogenizer, and centrifuged at 9600× g for 20 min. The post-mitochondrial supernatant was kept, glycerol added to 20%, and frozen at −70° C in 1.0 ml aliquots until used. For each incubation, 1.0 ml of a 1.0 mg/ml drug solution was added to 3.0 ml of 50 mM phosphate buffer (pH 7.4), 1.0 ml of 2 mg/ml NADPH in 50 mM phosphate (pH 7.4), and 1.0 ml of the post-mitochondrial supernatant. Five hundred μl of each incubate was then immediately transferred to an ice-cold tube to provide the zero-time sample, and addition 500 μl aliquots removed to ice-cold tubes at 8, 15, 30, and 60 min. The samples were then extracted, and analyzed by HPLC as described in section 7.1. Control incubations were also performed where drug or post-10 mitochondrial supernatant was omitted. […] Peaks in the CNI compound incubations which increased over time, and were not present in control samples lacking the enzyme preparation were treated as putative metabolites.

The subject of data set [6] is HIV-1. Description: HIV-1 production in cultured monocytes at fixed 100 nM. The note with it: monocytes infected 10 days prior to assay (10 ng p24/10^6 cells), percentage of untreated control. The class given is cell-based. Here is the method: Alternatively, the compounds may all be compared for inhibition of HIV replication at a fixed concentration. Presented in Table II are compounds that were used at a concentration of 100 nM to inhibit the production of HIV-1 in cultured monocytes infected with HIV-1 10 days prior to assay (10 ng of p24/10^6 cells). The production of HIV-1 in each treated culture is reported as percentage of untreated control.

Data set [7] deals with HIV-1ADA. Description: Anti-HIV activity in primary human monocytes, day 9 (Table IX, FIG. 12C). The class given is cell-based. The note with it: Human immunodeficiency virus 1, Monocyte, 216 h; day 9 after infection; >10 μM = 50% inhibition not achieved at maximal concentration; read-out: IC50. Here is the method: Monocytes infected with HIV-1ADA were cultured in the presence of CNI-H0294 and CNI-H3094 in various concentrations. Nine days after infection, RT activity in culture supernatants was quantified. The results are presented as percent of total RT activity in untreated cultures (control). Three independent samples were assayed for each drug concentration, and the standard deviation was less than 15%.
[…] A 50% inhibitory concentration (IC50) was determined at day 9 after infection.

The mark [8] stands for this setting: mouse, ip, 50 mg/kg, vehicle water.
Setting [9] is: mouse, po, 50 mg/kg, vehicle water.
The mark [10] stands for this setting: mouse, i.p., 50 mg/kg, vehicle water.
Setting [11] is: mouse, ip, 20 mg/kg, vehicle water.
[12] abbreviates: mouse, i.p., 20 mg/kg, vehicle water.

The structures appear in SMILES notation. Where a name gives a salt, the structure may show the parent alone. Read-outs that look alike come from different tables or passages of the source.

Consider `CC(=O)c1cccc(Nc2cc(C)[n+](C)c(N)n2)c1` (as salt: iodide) [Compound No. 14, 4-(3-acetylphenyl)amino-2-amino-1,6-dimethylpyrimidinium iodide], for which the melting point was in the range of 238 to 240 °C.
With `CC(=O)c1cc(Nc2cc(C)nc(N)n2)cc(C(C)=O)c1` [Compound No. 11, 2-amino-4-(3,5-diacetylphenyl)amino-6-methylpyrimidine], in data set [1], the “visible signs of toxicity” value is “well tolerated” and the LD50 was greater than 160 mg/kg. The compound further had an IC50 in data set [2] of 50 nM. In addition, in data set [3], the “less active than CNI-0294” value is “approximately 5 fold”. The Dose in data set [4] is 13.3 mg/Kg day. In data set [4] (setting [8]), this compound returned an AUC of 3930 ng·h/mL and a Cmax of 5700 ng/mL. For the same compound, in data set [4] (mouse, oral, mice, single 50 mg/kg dose, AUCoral against AUCi.p., read-out: relative bioavailability), the bioavailability came to 15%. Also, in data set [4] (setting [9]), the AUC is 570 ng·h/mL and the Cmax stood at 350 ng/mL. In data set [4] (ip, mouse, i.p., 50 mg/kg, vehicle water), the Tmax is 15 min. In addition, the bioavailability in data set [4] (mouse, oral, 50 mg/kg, vehicle water, AUCoral/AUCi.p., read-out: Bioavailability) was found to be 15%. In addition, in data set [4] (mouse, oral, 50 mg/kg, vehicle water), the Tmax is 15 min. In data set [4] (mice, oral, single 50 mg/kg dose), the maximal plasma level came out at 0.35 µg/mL. In data set [4] (setting [10]), the “A (zero time intercept of the distribution phase)” value was 5.22 µg/mL, the “B (zero time intercept of the elimination phase)” value came to 0.14 µg/mL, the Cltot was determined as 16.50 mL/min and the VD is on record as 5.21 L. For the same compound, in data set [4] (setting [10]), the t1/2α turned out to be 22.8 min, the t1/2β was determined as 219 min, the α was 1.83 h⁻¹ and the β turned out to be 0.19 h⁻¹. For the same compound, in data set [5], the metabolites produced entry was “three minor and one major metabolite”; the “metabolic conversion (drug altered, as judged by peak area)” value is 65.19%.
Regarding `CC(=O)c1cc(NC(=N)NC(=N)N)cc(C(C)=O)c1.Cl` [Compound No. 12, N-(3,5-diacetylphenyl)biguanide hydrochloride], the melting point is 260 to 270 °C (dec.). Also, the “Viral Production” value in data set [6] worked out at 12%.
The like results for `CC(=O)c1cc(Nc2nc(N)nc(N)n2)cc(C(C)=O)c1` [Compound No. 13, 2-(3,5-diacetylphenyl)amino-4,6-diamino-1,3,5-triazine] were, in that order, 271 to 272 °C and 14%.
Turning to `CC(=O)c1cccc(Nc2cc(C)[n+](C)c(N)n2)c1` [Compound No. 14, 4-(3-acetylphenyl)amino-2-amino-1,6-dimethylpyrimidinium iodide], the IC50 in data set [2] is 10 nM; in data set [7] it was 1000 nM.
In the case of `CC(=O)c1cccc(Nc2cc(C)nc(N)n2)c1` [Compound No. 15, 4-(3-acetylphenyl)amino-2-amino-6-methylpyrimidine], in data set [1], the “visible signs of toxicity” value was “death occurring in minutes and the animals displaying signs of acute neurotoxicity”; the 50% lethal dose (LD50) was 49.04 ± 0.08 mg/kg. The compound further showed an IC50 in data set [2] of 15 nM. Further, in data set [4], the Dose is listed as 5.70 mg/Kg day. In data set [4] (setting [11]), this compound showed an AUC of 820 ng·h/mL and a Cmax of 1930 ng/mL. Besides, the Tmax in data set [4] (ip, mouse, i.p., 20 mg/kg, vehicle water) is 15 min. Also, in data set [4] (setting [12]), the “A (zero time intercept of the distribution phase)” value turned out to be 1.10 µg/mL, the “B (zero time intercept of the elimination phase)” value was determined as 0.01 µg/mL, the Cltot stood at 26.40 mL/min and the t1/2α stood at 19.2 min. For the same compound, in data set [4] (setting [12]), the t1/2β is 1040 min, the α is 2.14 h⁻¹ and the β amounted to 0.04 h⁻¹. In data set [5], the metabolites produced entry is “three minor and one major metabolite”; the “metabolic conversion (drug altered, as judged by peak area)” value was 11.74%.

The melting point is the temperature, or range, at which the solid turns liquid. In general, LD50 refers to the dose expected to kill half of the subjects tested. For orientation: IC50 means the concentration at which inhibition is half-maximal. One may read the AUC as the area under the concentration-time curve, a measure of exposure. Low readings indicate less exposure, high ones more exposure. For orientation: Cmax means the peak of the concentration-time curve. Usually bioavailability stands for dose-corrected exposure relative to a reference, in per cent. The Tmax is the time at which the peak concentration occurs.
